The target of assay [1] is peripheral benzodiazepine receptors (PBR) (Homo sapiens, UniProt P30536). The assay is described as follows: Affinity to peripheral benzodiazepine receptors. In kind it is binding. To be noted: 1×10^−6 mol/L. The text has this:
(§1) Data on the affinity of 3-alcoxy-1,3-dihydro-2H-benzo[e][1,4]diazepin-2-ones (Ia) to central and peripheral benzodiazepine receptors is presented in Table 3.

Assay [2] concerns writhes induced by intraperitoneal acetic acid. The experiment in a line: Analgesic activity, acetic acid-induced writhing test (peripheral pain model). It counts as in vivo. The note with it: 1 mg/kg intraperitoneally, 40 min before 0.75% acetic acid. How it is done:
Assessment of analgesic activity was performed in a model of peripheral pain based on chemical pain induced by intraperitoneal administration of acetic acid, leading to involuntary contractions of abdominal muscles, termed “writhes”, accompanied by hind leg extension and spine arching. The writhes were induced by 0.75% solution of acetic acid, which was administered intraperitoneally 40 min after intraperitoneal administration of test compounds in 0.001-5 mg/kg dose range. […] Analgesic activity was assessed by the ability of the compounds to reduce the number of writhes in test group compared to control group, and indicated as percentage using the following formula: AA=(Wc−Wt/Wc)×100%,
where AA—analgesic activity in %;
Wc—average number of writhes in control group;
Wt—average number of writhes in test group
Test compounds were studied in comparison with the reference drug sodium diclofenac in 10 mg/kg dose. ED50 was calculated using Prozorovsky method.
(In general: In writhing tests, fewer writhes than in controls are read as antinociception.)

In assay [3] the test system is central benzodiazepine receptors (CBR). The experiment in a line: Affinity to central benzodiazepine receptors, competitive displacement of [3H]-flumazenil (radioreceptor method). It counts as binding. To be noted: 1×10^−6 mol/L. The method, then: Affinity of the compounds to central benzodiazepine receptors (CBR) was studied using radioreceptor method of competitive displacement of radioligant [^3H]-flumazenil (Ro 15-1788) from its specific binding sites at the receptor. Ligand displacement were performed in 1×10^−6 mol/L concentration.
as §1
For orientation: Displacement assays read how much labelled ligand stays bound in the presence of the test substance.

Assay [4] concerns general movement activity of animals. The experiment in a line: General movement activity, open field test. The note with it: for General movement activity (5 mg/kg): open field 3 min, sum of rearings, transitions, explored holes, 30 min before test; for Sedative properties (words, from general movement activity versus control): 5 mg/kg. It counts as in vivo. The method, then:
General movement activity was assessed in an open field test. While the animals were in the open field (3 min), the number of rearings (vertical movement activity), transitions between squares (horizontal movement activity) and the number of explored holes (exploratory activity) were registered. The sum of these values is general movement activity.
(§2) Diazepam drug was used as the reference drug. All test compounds and the reference drug diazepam were administered in a suspension with Tween-80 in 5 mg/kg dose 30 min before the start of experiments.

The test system of assay [5] is number of drinking actions despite electric shock. The assay is described as follows: Anxiolytic activity, conflict situation model (drinking versus electric shock). It counts as in vivo. To be noted: for Anxiolytic activity assessed using conflict situation method (5 mg/kg): number of drinking actions despite electric shock, 30 min before test. How it is done: Anxiolytic activity was assessed in a model of conflict situation based on the conflict of two reflexes (drinking and defensive) when drinking water from a water fountain. Anxiolytic activity was assessed by the number of drinking actions despite electric shock.
as §2

Molecules are shown by their SMILES.

Sequence of peripheral benzodiazepine receptors (PBR) (P30536 whole entry, species assumed): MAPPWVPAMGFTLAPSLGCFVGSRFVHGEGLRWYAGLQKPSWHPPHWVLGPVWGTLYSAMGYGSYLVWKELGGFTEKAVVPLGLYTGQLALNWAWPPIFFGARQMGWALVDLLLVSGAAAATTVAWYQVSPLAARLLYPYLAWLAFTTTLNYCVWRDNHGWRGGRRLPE

As to `CCCOC1N=C(c2ccccc2F)c2cc(Br)ccc2NC1=O` (centres unmarked) [Compound 2], in assay [1], the “Affinity PBR, %” value is 5%. For the same compound, in assay [2] (compounds Ia), the “Writhing inhibition, % of control in 1 mg/kg dose” value (“Writhing inhibition, % of control” below) is listed as 55%. The “Affinity CBR, %” value in assay [3] was found to be 85%.
Turning to `CCCCOC1N=C(c2ccccc2F)c2cc(Br)ccc2NC1=O` (centres unmarked) [Compound 3], the “Affinity PBR, %” value in assay [1] was found to be 8%. Besides, the “Writhing inhibition, % of control” value in assay [2] (compounds Ia) was determined as 45%. Moreover, in assay [3], the “Affinity CBR, %” value was found to be 88%.
In the case of `O=C1Nc2ccc(Br)cc2C(c2ccccc2F)=NC1OCCO` (centres unmarked) [Compound 4], in assay [1], the “Affinity PBR, %” value was 8%. Further, the “Writhing inhibition, % of control” value in assay [2] (compounds Ia) is given as 56%. The “Affinity CBR, %” value in assay [3] was 91%.
The matching figures for `COCCOC1N=C(c2ccccc2F)c2cc(Br)ccc2NC1=O` (centres unmarked) [Compound 5]: 10%, 52% and 90%.
The matching figures for `O=C1Nc2ccc(Br)cc2C(c2ccccc2F)=NC1OCC1CC1` (centres unmarked) [Compound 6]: 15%, 55% and 89%.
The matching figures for `COCCOC1N=C(c2ccccc2)c2cc(Cl)ccc2NC1=O` (centres unmarked) [Compound 16]: 15%, 55% and 88%.
Regarding `O=C1Nc2ccc(Cl)cc2C(c2ccccc2)=NC1OCC1CC1` (centres unmarked) [Compound 17], the “Affinity PBR, %” value in assay [1] came out at 14%. In addition, in assay [2] (compounds Ia), the “Writhing inhibition, % of control” value was 54%. Moreover, the “Affinity CBR, %” value in assay [3] is reported as 79%.
On the same counts, the results for `CCOC1N=C(c2ccccc2)c2cc(OC(F)(F)F)ccc2NC1=O` (centres unmarked) [Compound 27] are 16%, 55% and 56%.
As to `CCCOC1N=C(c2ccccc2)c2cc(OC(F)(F)F)ccc2NC1=O` (centres unmarked) [Compound 28], the “Affinity PBR, %” value in assay [1] amounted to 18%. Also, the “Writhing inhibition, % of control” value in assay [2] (compounds Ia) was 60%. The “Affinity CBR, %” value in assay [3] came out at 60%.
As to `CCCCOC1N=C(c2ccccc2)c2cc(OC(F)(F)F)ccc2NC1=O` (centres unmarked) [Compound 29], the “Affinity PBR, %” value in assay [1] came out at 15%. Also, the “Writhing inhibition, % of control” value in assay [2] (compounds Ia) came out at 56%. For the same compound, in assay [3], the “Affinity CBR, %” value is on record as 61%.
For `CCOC1N=C(c2ccccc2Cl)c2cc([N+](=O)[O-])ccc2NC1=O` (centres unmarked) [Compound 53], the “Affinity PBR, %” value in assay [1] turned out to be 15%. Further, the “Affinity CBR, %” value in assay [3] was found to be 85%.
On the same counts, the results for `CCCOC1N=C(c2ccccc2Cl)c2cc([N+](=O)[O-])ccc2NC1=O` (centres unmarked) [Compound 54] are 16% and 88%.
Take `CCCCOC1N=C(c2ccccc2Cl)c2cc([N+](=O)[O-])ccc2NC1=O` (centres unmarked) [Compound 55]: the “Affinity PBR, %” value in assay [1] is 19%. The “Affinity CBR, %” value in assay [3] was 87%.
Consider `COC(=O)CN1C(=O)C(Nc2ccc([N+](=O)[O-])cc2)N=C(c2ccccc2)c2cc(OC(F)(F)F)ccc21` (centres unmarked) [Compound 229], for which the “Writhing inhibition, % of control” value in assay [2] (compounds Ib) was 59%. Moreover, in assay [4], the “General movement activity (5 mg/kg)” value worked out at 19.0 ± 1.0. Moreover, in assay [5], the “Anxiolytic activity assessed using conflict situation method (5 mg/kg)” value (“Anxiolytic activity assessed” below) was found to be 38.7 ± 2.6.
`COC(=O)CN1C(=O)C(Nc2ccccc2[N+](=O)[O-])N=C(c2ccccc2)c2cc([N+](=O)[O-])ccc21` (centres unmarked) [Compound 281]: the “Writhing inhibition, % of control” value in assay [2] (compounds Ib) is reported as 61%. Further, in assay [4], the “General movement activity (5 mg/kg)” value is recorded as 14.0 ± 1.4. In addition, the “Anxiolytic properties” value in assay [5] (5 mg/kg) was “potent anxiolytic properties”. In assay [5], the “Anxiolytic activity assessed” value worked out at 115.6 ± 9.3.
`COC(=O)CN1C(=O)C(Nc2cccc([N+](=O)[O-])c2)N=C(c2ccccc2)c2cc([N+](=O)[O-])ccc21` (centres unmarked) [Compound 282]: in assay [2] (compounds Ib), the “Writhing inhibition, % of control” value stood at 59%. For the same compound, the “General movement activity (5 mg/kg)” value in assay [4] was found to be 19.0 ± 2.4. Also, the “Anxiolytic activity assessed” value in assay [5] amounted to 44.7 ± 3.9.
The matching figures for `COC(=O)CN1C(=O)C(Nc2ccc([N+](=O)[O-])cc2)N=C(c2ccccc2)c2cc([N+](=O)[O-])ccc21` (centres unmarked) [Compound 283]: 54%, 22.0 ± 2.0 and 45.1 ± 2.6.
For the compound `COC(=O)CN1C(=O)C(Nc2ccccc2F)N=C(c2ccccc2Cl)c2cc([N+](=O)[O-])ccc21` (centres unmarked) [Compound 317], in assay [2] (compounds Ib), the “Writhing inhibition, % of control” value was determined as 63%. For the same compound, in assay [4], the “Sedative properties (words, from general movement activity versus control)” value was “don't have sedative properties” and the “General movement activity (5 mg/kg)” value was found to be 47.0 ± 3.7. In addition, the “Anxiolytic activity assessed” value in assay [5] is reported as 33.4 ± 3.2.
Regarding `COC(=O)CN1C(=O)C(Nc2cccc(F)c2)N=C(c2ccccc2Cl)c2cc([N+](=O)[O-])ccc21` (centres unmarked) [Compound 318], the “Writhing inhibition, % of control” value in assay [2] (compounds Ib) was 65%. Also, the “General movement activity (5 mg/kg)” value in assay [4] is listed as 28.5 ± 2.3. In addition, the “Anxiolytic activity assessed” value in assay [5] is listed as 19.2 ± 3.4.
Regarding `COC(=O)CN1C(=O)C(Nc2ccc(F)cc2)N=C(c2ccccc2Cl)c2cc([N+](=O)[O-])ccc21` (centres unmarked) [Compound 319], in assay [2] (compounds Ib), the “Writhing inhibition, % of control” value was 61%. Besides, the “General movement activity (5 mg/kg)” value in assay [4] is 27.2 ± 2.1. Further, the “Anxiolytic activity assessed” value in assay [5] was found to be 18.1 ± 2.2.
On the same counts, the results for `COC(=O)CN1C(=O)C(Nc2ccccc2Br)N=C(c2ccccc2Cl)c2cc([N+](=O)[O-])ccc21` (centres unmarked) [Compound 326] are 62%, 22.0 ± 2.0 and 45.1 ± 2.6.
As for `COC(=O)CN1C(=O)C(Nc2cccc(Br)c2)N=C(c2ccccc2Cl)c2cc([N+](=O)[O-])ccc21` (centres unmarked) [Compound 327], in assay [2] (compounds Ib), the “Writhing inhibition, % of control” value is 70%. Also, in assay [4], the “Sedative properties (words, from general movement activity versus control)” value was “don't have sedative properties” and the “General movement activity (5 mg/kg)” value is 45.0 ± 3.7. Moreover, in assay [5], the “Anxiolytic activity assessed” value was 43.4 ± 3.2.
Consider `COC(=O)CN1C(=O)C(Nc2ccc(Br)cc2)N=C(c2ccccc2Cl)c2cc([N+](=O)[O-])ccc21` (centres unmarked) [Compound 328], for which, in assay [2] (compounds Ib), the “Writhing inhibition, % of control” value is given as 69%. The “General movement activity (5 mg/kg)” value in assay [4] came out at 24.5 ± 2.3. For the same compound, in assay [5], the “Anxiolytic activity assessed” value is 23.2 ± 3.4.
For `COC(=O)CN1C(=O)C(Nc2ccccc2Cl)N=C(c2ccccc2F)c2cc([N+](=O)[O-])ccc21` (centres unmarked) [Compound 362], in assay [2] (compounds Ib), the “Writhing inhibition, % of control” value was determined as 65%. In addition, in assay [4], the “General movement activity (5 mg/kg)” value turned out to be 29.2 ± 2.3. In assay [5], the “Anxiolytic activity assessed” value came out at 35.1 ± 3.5.
Regarding `COC(=O)CN1C(=O)C(Nc2cccc(Cl)c2)N=C(c2ccccc2F)c2cc([N+](=O)[O-])ccc21` (centres unmarked) [Compound 363], the “Writhing inhibition, % of control” value in assay [2] (compounds Ib) came to 70%. In addition, in assay [4], the “Sedative properties (words, from general movement activity versus control)” value is reported as “don't have sedative properties” and the “General movement activity (5 mg/kg)” value stood at 41.0 ± 3.9. For the same compound, the “Anxiolytic activity assessed” value in assay [5] is on record as 46.4 ± 4.2.
Regarding `COC(=O)CN1C(=O)C(Nc2ccc(Cl)cc2)N=C(c2ccccc2F)c2cc([N+](=O)[O-])ccc21` (centres unmarked) [Compound 364], the “Writhing inhibition, % of control” value in assay [2] (compounds Ib) worked out at 64%. The “General movement activity (5 mg/kg)” value in assay [4] was 34.5 ± 3.3. The “Anxiolytic activity assessed” value in assay [5] was determined as 26.2 ± 3.4.
Turning to `COC(=O)CN1C(=O)C(Nc2ccccc2C(F)(F)F)N=C(c2ccccc2F)c2cc([N+](=O)[O-])ccc21` (centres unmarked) [Compound 398], the “Writhing inhibition, % of control” value in assay [2] (compounds Ib) is reported as 68%. Further, the “General movement activity (5 mg/kg)” value in assay [4] was 28.2 ± 3.3. Further, the “Anxiolytic activity assessed” value in assay [5] is on record as 33.1 ± 3.2.
With `COC(=O)CN1C(=O)C(Nc2cccc(C(F)(F)F)c2)N=C(c2ccccc2F)c2cc([N+](=O)[O-])ccc21` (centres unmarked) [Compound 399], the “Writhing inhibition, % of control” value in assay [2] (compounds Ib) is on record as 70%. In assay [4], the “Sedative properties (words, from general movement activity versus control)” value was “don't have sedative properties” and the “General movement activity (5 mg/kg)” value stood at 41.8 ± 4.3. Also, the “Anxiolytic activity assessed” value in assay [5] is 44.4 ± 4.3.
In the case of `COC(=O)CN1C(=O)C(Nc2ccc(C(F)(F)F)cc2)N=C(c2ccccc2F)c2cc([N+](=O)[O-])ccc21` (centres unmarked) [Compound 400], the “Writhing inhibition, % of control” value in assay [2] (compounds Ib) stood at 60%. In addition, the “General movement activity (5 mg/kg)” value in assay [4] is 36.5 ± 3.3. The “Anxiolytic activity assessed” value in assay [5] was found to be 32.2 ± 3.3.

The record behind these values is US11358939B2, “1,4-benzodiazepin-2-one derivatives and use thereof” (priority 2017, dated 2022).
